Measurements from patent US20160073633A1, “CROP ENHANCEMENT” (SYNGENTA PARTICIPATIONS AG, priority 2013, published 2016).
“Also recorded” adds a separate entry of the source.

Columns and labels:
potato tubers [1] = assay: Experiment 1.2: azoxystrobin sprayed on uncovered pre-germinated potato tubers at about 10° C. (simulated cold stress), plant growth vs check; format: in vivo; conditions: 3 g/ha; for % increased growth vs Check (visual plant growth): pre-germinated, 21 days after application
Method: A commercially available SC100 formulation of azoxystrobin was sprayed directly to uncovered potato tubers, which were sitting on soil (50% drench soil mixed with 50% sand), at: • 3 g/ha
(§1) The spray volume was 200 l/ha.
(§2) The check had no treatment of azoxystrobin.
(§3) The trials were repeated in 6 troughs with 3 tubers each.
Varieties tested were Allians, Belana, Marabel and Roberta. Each were tested as pre-germinated (i.e. treatment was applied when the potato tuber had 2-3 mm long sprouts) tubers.
The temperature was held at about 10° C. during the day and night to simulate cold stress.
(§4) No pest pressure present.
Visual Plant Growth was Measured 21 Days after Application: […]

potato tubers [2] = assay: Experiment 1.1: azoxystrobin sprayed on uncovered potato tubers, no cold stress, plant growth vs check; format: in vivo
Method: A commercially available SC100 formulation of azoxystrobin was sprayed directly to uncovered potato tubers, which were sitting on soil (50% drench soil mixed with 50% sand), at two different rates: • 7.5 g/ha • 3.8 g/ha
as §1, §2, §3
Varieties tested were Allians, Belana, Marabel and Roberta. Each were tested as pre-germinated (i.e. treatment was applied when the potato tuber had 2-3 mm long sprouts) tubers and as non germinated tubers.
The temperature was about 17° C. during the day and about 15° C. during the night.
as §4
Plant vitality was measured with the “Green Seeker” system.

[3] = 21 and 34 days after application

`CO/C=C(/C(=O)OC)c1ccccc1Oc1cc(Oc2ccccc2C#N)ncn1` [azoxystrobin] was tested. Which “Number of shoots in comparison with the check” value (potato tubers [1]; [3]) did it give?
The value was “increased number of shoots”.

What about the “Shoot length in comparison with the check” value (potato tubers [1]; [3]) of the same compound?
The value was “increased shoot length”.

What about the “Visually more shoot than check” value (potato tubers [1]; across varieties) of the same compound?
The value was “up to 38%”.

And the “Growth of treated tubers vs untreated check” value (potato tubers [1]; all varieties)?
The value was “grew better than untreated check”.

What about the “% increased growth vs Check (visual plant growth)” value (“% increased growth vs Check” for short) (potato tubers [1]; variety Allians) of the same compound?
Its value is 38%.

And the “% increased growth vs Check” value (potato tubers [1]; variety Belana)?
The value was 12%.

What about the “% increased growth vs Check” value (potato tubers [1]; variety Marabel) of the same compound?
The value was 37%.

And the “% increased growth vs Check” value (potato tubers [1]; variety Roberta)?
The value was 10%.

What about the “Shoot number in comparison with the check” value (potato tubers [2]; 7.5 g/ha and 3.8 g/ha, spray 200 l/ha, about 17° C. day/15° C. night, Allians, Belana, Marabel, Roberta, pre-germinated and non germinated tubers) of the same compound?
Its value is “increased number of shoots”.

What about the “Shoot fresh mass in comparison with the check” value (potato tubers [2]; 7.5 g/ha and 3.8 g/ha, spray 200 l/ha, about 17° C. day/15° C. night, all varieties) of the same compound?
The value was “increased shoot fresh mass; also recorded: significantly increased”.

What about the “Plant vitality (Green Seeker) vs check” value (potato tubers [2]; Allians and Roberta, pre-germinated tubers, about 17° C. day/15° C. night) of the same compound?
The value was “better than check”.

And the “Plant vitality (Green Seeker) in comparison with the check, FIG. 3” value (potato tubers [2]; each trial, 7.5 g/ha and 3.8 g/ha)?
The value was “increased plant vitality”.

And the “Plant vitality (Green Seeker) vs check” value (potato tubers [2]; low rate treatment (3.8 g/ha), about 17° C. day/15° C. night)?
Its value is “often showed a lower value”.
